Results on 26 compounds are retold here after patent US6737417B2, “Compounds with hydroxycarbonyl-halogenoalkyl side chain” (Chugai Seiyaku Kabushiki Kaisha, priority 1999, dated 2004).

The subject of one test is ovariectomized mice administered with 17β-estradiol. Nature of the test: Anti-estrogenic activity (oral administration): inhibition of estradiol-induced increase in uterine weight in ovariectomized mice. The test is classed as in vivo. The note with it: 10 mg/kg p.o., once a day for 3 days, ovariectomized ICR mice given 17β-estradiol-benzoate 0.1 μg/mouse s.c. for 3 days. The protocol: Test compounds were assayed for their oral anti-estrogenic activity in the following manner. In this experiment, the compounds prepared in Examples 5, 12, 14-33, 37 and 38 were used as test compounds. As control compounds, those having the same structures in the parent scaffold as the test compounds were used, that is, ZM189154 for Examples 5 and 27-33 and ICI182780 for Examples 12, 14-26, 37 and 38.
In this experiment, each of the test and control compounds was suspended in 5% arabic gum solution and orally administered for 3 days on a once-a-day basis. After 24 hours from the last administration, the test animals were sacrificed and the uteri were removed and weighed.
For the compound `C[C@]1(c2ccc(O)cc2)CCc2cc(O)ccc2[C@H]1CCCCCCCCC[S+]([O-])CCCC(F)(F)C(F)(F)F` (some centres unmarked) [ZM189154, reference compound], the “Inhibition (%)” value was determined as 42%.

The test is the same for the next values; noted with them: 10 mg/kg p.o., once a day for 3 days, ovariectomized ICR mice given 17β-estradiol-benzoate 0.1 μg/mouse s.c. for 3 days, 10 mg/kg.
Consider `C[C@]12C[C@H](CCCCCCCCC(CCCCCC(F)(F)C(F)(F)F)C(=O)O)[C@@H]3c4ccc(O)cc4CC[C@H]3[C@@H]1CC[C@@H]2O` (stereo partly drawn) [Example 26, 10-(3,17β-dihydroxyestra-1,3,5(10)-trien-11β-yl)-2-(6,6,7,7,7-pentafluoroheptyl)decanoic Acid], for which the “Inhibition (%)” value came out at 96%.

The same test, now with this note: po, 24 h, 10 mg/kg p.o., once a day for 3 days, ovariectomized ICR mice given 17β-estradiol-benzoate 0.1 μg/mouse s.c. for 3 days.
As a reminder, the inhibition in vivo is the drop in the measured response relative to a control, in per cent. In the case of `C[C@]12CC[C@@H]3c4ccc(O)cc4C[C@@H](CCCCCCCCC(CCC(F)(F)C(F)(F)C(F)(F)C(F)(F)F)C(=O)O)[C@H]3[C@@H]1CC[C@@H]2O` (stereo partly drawn) [Example 16, 10-[3,17β-dihydroxyestra-1,3,5(10)-trien-7α-yl]-2-(3,3,4,4,5,5,6,6,6-nonafluorohexyl)decanoic Acid], the inhibition in vivo at 10 mg/kg turned out to be 98%.
On the same count and under the same terms, the figure for `C[C@]12CC[C@@H]3c4ccc(O)cc4C[C@@H](CCCCCCCC[C@@H](CCCC(F)(F)C(F)(F)C(F)(F)C(F)(F)F)C(=O)O)[C@H]3[C@@H]1CC[C@@H]2O` [Example 38, (2S)-10-(3,17β-dihydroxyestra-1,3,5(10)-trien-7α-yl)-2-(4,4,5,5,6,6,7,7,7-nonafluoroheptyl)decanoic Acid] is 100%; for `C[C@]12CC[C@@H]3c4ccc(O)cc4C[C@@H](CCCCCCCCCC(CCC(F)(F)C(F)(F)C(F)(F)C(F)(F)F)C(=O)O)[C@H]3[C@@H]1CC[C@@H]2O` (stereo partly drawn) [Example 19, 11-[3,17β-dihydroxyestra-1,3,5(10)-trien-7α-yl]-2-(3,3,4,4,5,5,6,6,6-nonafluorohexyl)undecanoic Acid] it is 92%.
On the same count and under the same terms, to `C[C@]12CC[C@@H]3c4ccc(O)cc4C[C@@H](CCCCCCCC[C@H](CCCC(F)(F)C(F)(F)C(F)(F)C(F)(F)F)C(=O)O)[C@H]3[C@@H]1CC[C@@H]2O` [Example 37, (2R)-10-(3,17β-dihydroxyestra-1,3,5(10)-trien-7α-yl)-2-(4,4,5,5,6,6,7,7,7-nonafluoroheptyl)decanoic Acid] belongs 101%.
`C[C@]12C[C@H](CCCCCCCCC(CCCCCC(F)(F)C(F)(F)F)C(=O)O)[C@@H]3c4ccc(O)cc4CC[C@H]3[C@@H]1CC[C@@H]2O` (stereo partly drawn) [Example 12, 10-[3,17β-dihydroxyestra-1,3,5(10)-trien-11β-yl]-2-(6,6,7,7,7-pentafluoroheptyl)decanoic Acid]: the inhibition in vivo at 10 mg/kg was determined as 97%.
On the same count and under the same terms, the figure for `C[C@]12C[C@H](CCCCCCCCC(CCC(F)(F)C(F)(F)C(F)(F)C(F)(F)F)C(=O)O)[C@@H]3c4ccc(O)cc4CC[C@H]3[C@@H]1CC[C@@H]2O` (stereo partly drawn) [Example 23, 10-(3,17β-dihydroxyestra-1,3,5(10)-trien-11β-yl)-2-(3,3,4,4,5,5,6,6,6-nonafluorohexyl)decanoic Acid] is 98%.
On to `C[C@]12C[C@H](CCCCCCCCCC(CCCC(F)(F)C(F)(F)C(F)(F)C(F)(F)F)C(=O)O)[C@@H]3c4ccc(O)cc4CC[C@H]3[C@@H]1CC[C@@H]2O` (stereo partly drawn) [Example 25, 11-(3,17β-dihydroxyestra-1,3,5(10)-trien-11β-yl)-2-(4,4,5,5,6,6,7,7,7-nonafluoroheptyl)undecanoic Acid], for which the inhibition in vivo at 10 mg/kg amounted to 93%.
On to `O=C(O)C(CCCCCCCCCCc1c(-c2ccc(O)cc2C(F)(F)F)ccc2cc(O)ccc12)CCCC(F)(F)C(F)(F)F` (centres unmarked) [Example 32, 12-[6-hydroxy-2-(4-hydroxy-2-trifluoromethylphenyl)naphth-1-yl]-2-(4,4,5,5,5-pentafluoropentyl)-dodecanoic Acid], for which the inhibition in vivo at 10 mg/kg amounted to 73%.
In the case of `CCc1cc(O)ccc1-c1ccc2cc(O)ccc2c1CCCCCCCCCCC(CCCC(F)(F)C(F)(F)F)C(=O)O` (centres unmarked) [Example 30, 12-[2-(2-ethyl-4-hydroxyphenyl)-6-hydroxynaphth-1-yl]-2-(4,4,5,5,5-pentafluoropentyl)dodecanoic Acid], the inhibition in vivo at 10 mg/kg came to 58%.
As for `C[C@]12CC[C@@H]3c4ccc(O)cc4C[C@@H](CCCCCCCCCC(CCCC(F)(F)C(F)(F)C(F)(F)C(F)(F)F)C(=O)O)[C@H]3[C@@H]1CC[C@@H]2O` (stereo partly drawn) [Example 18, 11-[3,17β-dihydroxyestra-1,3,5(10)-trien-7α-yl]-2-(4,4,5,5,6,6,7,7,7-nonafluoroheptyl)undecanoic Acid], the inhibition in vivo at 10 mg/kg stood at 85%.
For `O=C(O)C(CCCCCCCCCCc1c(-c2ccc(O)cc2)ccc2cc(O)ccc12)CCCC(F)(F)C(F)(F)F` (centres unmarked) [Example 27, 12-[6-hydroxy-2-(4-hydroxyphenyl)naphth-1-yl]-2-(4,4,5,5,5-pentafluoropentyl)dodecanoic Acid], the inhibition in vivo at 10 mg/kg amounted to 64%.
As for `C[C@]1(c2ccc(O)cc2)CCc2cc(O)ccc2C1CCCCCCCCC(CCCC(F)(F)C(F)(F)F)C(=O)O` (mixture of isomers) [Example 5, 10-[(1RS, 2RS)-6-hydroxy-2-(4-hydroxyphenyl)-2-methyl-1,2,3,4-tetrahydro-1-naphthyl]-2-(4,4,5,5,5-pentafluoropentyl)decanoic Acid], the inhibition in vivo at 10 mg/kg stood at 67%.
On to `O=C(O)C(CCCCCCCCCc1c(-c2ccc(O)cc2)ccc2cc(O)ccc12)CCC(F)(F)C(F)(F)C(F)(F)C(F)(F)F` (centres unmarked) [Example 28, 11-[6-hydroxy-2-(4-hydroxyphenyl)naphth-1-yl]-2-(3,3,4,4,5,5,6,6,6-nonafluorohexyl)undecanoic Acid], for which the inhibition in vivo at 10 mg/kg was determined as 68%.
Turning to `C[C@]12CC[C@@H]3c4ccc(O)cc4C[C@@H](CCCCCCCCC(CCCC(F)(F)C(F)(F)F)C(=O)O)[C@H]3[C@@H]1CC[C@@H]2O` (stereo partly drawn) [Example 14, 10-[3,17β-dihydroxyestra-1,3,5(10)-trien-7α-yl]-2-(4,4,5,5,5-pentafluoropentyl)decanoic Acid], the inhibition in vivo at 10 mg/kg amounted to 87%.
With `C[C@]12C[C@H](CCCCCCCCC(CCCC(F)(F)C(F)(F)C(F)(F)C(F)(F)F)C(=O)O)[C@@H]3c4ccc(O)cc4CC[C@H]3[C@@H]1CC[C@@H]2O` (stereo partly drawn) [Example 22, 10-(3,17β-dihydroxyestra-1,3,5(10)-trien-11β-yl)-2-(4,4,5,5,6,6,7,7,7-nonafluoroheptyl)decanoic Acid], the inhibition in vivo at 10 mg/kg was 98%.
Turning to `C[C@]12CC[C@@H]3c4ccc(O)cc4C[C@@H](CCCCCCCCC(CCCC(F)(F)C(F)(F)C(F)(F)C(F)(F)F)C(=O)O)[C@H]3[C@@H]1CC[C@@H]2O` (stereo partly drawn) [Example 15, 10-[3,17β-dihydroxyestra-1,3,5(10)-trien-7α-yl]-2-(4,4,5,5,6,6,7,7,7-nonafluoroheptyl)decanoic Acid], the inhibition in vivo at 10 mg/kg is 96%.
Take `C[C@]12C[C@H](CCCCCCCCC(CCCC(F)(F)C(F)(F)F)C(=O)O)[C@@H]3c4ccc(O)cc4CC[C@H]3[C@@H]1CC[C@@H]2O` (stereo partly drawn) [Example 21, 10-(3,17β-dihydroxyestra-1,3,5(10)-trien-11β-yl)-2-(4,4,5,5,5-pentafluoropentyl)decanoic Acid]: the inhibition in vivo at 10 mg/kg stood at 99%.
With `O=C(O)C(CCCCCCCCCCc1c(-c2ccc(O)c(F)c2)ccc2cc(O)ccc12)CCCC(F)(F)C(F)(F)F` (centres unmarked) [Example 33, 12-[2-(3-fluoro-4-hydroxyphenyl)-6-hydroxynaphth-1-yl]-2-(4,4,5,5,5-pentafluoropentyl)dodecanoic Acid], the inhibition in vivo at 10 mg/kg worked out at 64%.
Same read-out and setting: to `C[C@]12C[C@H](CCCCCCCCCC(CCC(F)(F)C(F)(F)C(F)(F)C(F)(F)F)C(=O)O)[C@@H]3c4ccc(O)cc4CC[C@H]3[C@@H]1CC[C@@H]2O` (stereo partly drawn) [Example 20, 11-(3,17β-dihydroxyestra-1,3,5(10)-trien-11β-yl)-2-(3,3,4,4,5,5,6,6,6-nonafluorohexyl)undecanoic Acid] belongs 94%; to `C[C@]12CC[C@@H]3c4ccc(O)cc4C[C@@H](CCCCCCCCC(CCCCCC(F)(F)C(F)(F)F)C(=O)O)[C@H]3[C@@H]1CC[C@@H]2O` (stereo partly drawn) [Example 17, 10-[3,17β-dihydroxyestra-1,3,5(10)-trien-7α-yl]-2-(6,6,7,7,7-pentafluoroheptyl)decanoic Acid], 94%.
Regarding `O=C(O)C(CCCCCCCCCCc1c(-c2ccc(O)cc2F)ccc2cc(O)ccc12)CCCC(F)(F)C(F)(F)F` (centres unmarked) [Example 31, 12-[2-(2-fluoro-4-hydroxyphenyl)-6-hydroxynaphth-1-yl]-2-(4,4,5,5,5-pentafluoropentyl)dodecanoic Acid], the inhibition in vivo at 10 mg/kg amounted to 75%.
On the same count and under the same terms, the figure for `Cc1cc(O)ccc1-c1ccc2cc(O)ccc2c1CCCCCCCCCCC(CCCC(F)(F)C(F)(F)F)C(=O)O` (centres unmarked) [Example 29, 12-[6-hydroxy-2-(4-hydroxy-2-methylphenyl)-naphth-1-yl]-2-(4,4,5,5,5-pentafluoropentyl)dodecanoic Acid] is 80%; for `C[C@]12C[C@H](CCCCCCCCCC(CCCC(F)(F)C(F)(F)F)C(=O)O)[C@@H]3c4ccc(O)cc4CC[C@H]3[C@@H]1CC[C@@H]2O` (stereo partly drawn) [Example 24, 11-(3,17β-dihydroxyestra-1,3,5(10)-trien-11β-yl)-2-(4,4,5,5,5-pentafluoropentyl)undecanoic Acid] it is 98%.
Consider `C[C@]12CC[C@@H]3c4ccc(O)cc4C[C@@H](CCCCCCCCC[S+]([O-])CCCC(F)(F)C(F)(F)F)[C@H]3[C@@H]1CC[C@@H]2O` (some centres unmarked) [ICI182780, reference compound], for which the inhibition in vivo at 10 mg/kg came out at 51%.
